Some results are limits rather than exact numbers.

Holding throughout (assay type): biochemical
The target of experiment [1] is HDAC3 (Homo sapiens, UniProt O15379). In words: HDAC enzymatic assay (Reaction Biology), fluorogenic substrate. Details: purchased Reaction Biology. Here is the method: (§1) Compounds 2 and 9 were tested in an enzymatic assay from Reaction Biology® against HDAC isoforms.
(§2) Base Reaction buffer: 50 mM Tris-HCl, pH8.0, 137 mM NaCl, 2.7 mM KCl, and 1 mM MgCl2. Add fresh: 1 mg/ml BSA, 1% DMSO
(§3) Fluorogenic HDAC General Substrate (HDAC1, HDAC2, HDAC3, HDAC6, HDAC10, and HDAC11): 50 μM, Arg-His-Lys-Lys(Ac)-AMC
(§4) 1. Delivered 2X enzyme in wells of reaction plate except in the control wells and added buffer to control wells. 2. Delivered compounds in 100% DMSO into the enzyme mixture by Acoustic technology (Echo550; nanoliter range). Spin down and pre-incubation. 3. Delivered 2X Substrate Mixture (Fluorogenic HDAC Substrate and co-factor if applicable) in all reaction wells to initiate the reaction. Spin and shake. 4. Incubated for 30 min for Class 2A, 1 h for HDAC1, 2, 3, and 6, and 2 h for the rest of HDAC isoforms and SIRTs at 30° C. with seal.
(§5) 5. Added Developer with Trichostatin A (or Nicotinamide for SIRTs) to stop the reaction and to generate fluorescent color. 6. The fluorescence that was generated was detected with excitation (Ex) at […] and emission (Em) at 460 nM by the EnVision Multilabel Plate Reader (PerkinElmer®, Santa Clara, Calif., USA).
(§6) IC50 values were derived from a 10-dose response curve. As shown in Tables 1-2, the addition of a linker and CRBN targeting group altered the isoform selectivity of the SAHA-based degrader compounds.

The target in experiment [2] is T1, HDAC6 (Homo sapiens, UniProt Q9UBN7).
T1 sequence (Q9UBN7 1-1215): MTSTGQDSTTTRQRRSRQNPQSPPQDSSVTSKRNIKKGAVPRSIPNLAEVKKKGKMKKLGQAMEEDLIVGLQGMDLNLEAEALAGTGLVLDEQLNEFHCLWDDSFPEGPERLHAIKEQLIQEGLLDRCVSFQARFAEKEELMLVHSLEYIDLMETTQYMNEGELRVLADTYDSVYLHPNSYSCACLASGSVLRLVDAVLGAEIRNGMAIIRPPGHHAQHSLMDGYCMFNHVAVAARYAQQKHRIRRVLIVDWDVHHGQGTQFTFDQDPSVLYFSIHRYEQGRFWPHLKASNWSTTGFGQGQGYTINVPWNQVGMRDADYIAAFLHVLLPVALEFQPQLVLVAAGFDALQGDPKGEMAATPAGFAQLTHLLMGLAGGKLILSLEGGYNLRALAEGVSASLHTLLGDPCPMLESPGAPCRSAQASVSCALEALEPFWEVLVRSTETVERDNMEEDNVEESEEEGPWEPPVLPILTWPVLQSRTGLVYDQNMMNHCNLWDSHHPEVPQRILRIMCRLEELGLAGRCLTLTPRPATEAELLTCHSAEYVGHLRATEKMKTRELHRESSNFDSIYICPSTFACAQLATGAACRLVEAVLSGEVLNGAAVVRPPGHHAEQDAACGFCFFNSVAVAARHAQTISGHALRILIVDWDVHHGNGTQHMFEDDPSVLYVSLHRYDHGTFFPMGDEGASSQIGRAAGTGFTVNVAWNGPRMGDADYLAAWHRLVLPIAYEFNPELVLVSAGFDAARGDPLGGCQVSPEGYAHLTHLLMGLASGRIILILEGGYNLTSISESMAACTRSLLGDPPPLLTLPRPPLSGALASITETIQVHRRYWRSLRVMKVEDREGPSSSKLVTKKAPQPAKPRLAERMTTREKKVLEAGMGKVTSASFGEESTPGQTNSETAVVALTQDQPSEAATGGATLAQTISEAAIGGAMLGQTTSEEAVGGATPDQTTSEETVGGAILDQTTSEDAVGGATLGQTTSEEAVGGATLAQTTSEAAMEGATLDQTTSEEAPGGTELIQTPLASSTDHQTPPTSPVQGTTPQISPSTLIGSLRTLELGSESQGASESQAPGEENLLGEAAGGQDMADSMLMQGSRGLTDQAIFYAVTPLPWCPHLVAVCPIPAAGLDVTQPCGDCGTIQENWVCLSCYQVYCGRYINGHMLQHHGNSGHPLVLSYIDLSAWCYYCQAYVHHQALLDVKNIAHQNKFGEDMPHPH
The description is as above. The arrangement: purchased Reaction Biology. Here is the method:
as §1, §2, §3, §4, §5, §6

Experiment [3] concerns the target T2, HDAC4 (Homo sapiens, UniProt P56524).
T2 construct: purchased Reaction Biology
In words: HDAC enzymatic assay (Reaction Biology), Class 2A substrate. The following applies: 10-dose response curve; read-out: Compound IC50 (M), HDAC4. Here is the method:
as §1, §2
(§7) Class 2A Substrate (HDAC4, HDAC5, HDAC7, and HDAC9): Boc-Lys(trifluoroacetyl)-AMC
as §4, §5, §6

Experiment [4] has as its target T3, HDAC9 (Homo sapiens, UniProt Q9UKV0).
T3 construct: purchased Reaction Biology
The experiment is described as above. The following applies: 10-dose response curve; read-out: Compound IC50 (M), HDAC9. Here is the method: as §1, §2, §7, §4, §5, §6

Experiment [5] concerns the target T4, HDAC5 (Homo sapiens, UniProt Q9UQL6).
T4 construct: purchased Reaction Biology
The experiment is described as above. The note with it: 10-dose response curve; read-out: Compound IC50 (M), HDAC5. Here is the method:
as §1, §2, §7, §4, §5, §6

For experiment [6], the target named is T5, HDAC2 (Homo sapiens, UniProt Q92769).
T5 construct: purchased Reaction Biology
In words: HDAC enzymatic assay (Reaction Biology), fluorogenic substrate. Here is the method:
as §1, §2, §3, §4, §5, §6

The target in experiment [7] is T6, HDAC1 (Homo sapiens, UniProt Q13547).
T6 construct: purchased Reaction Biology
The description is as above. Here is the method: as §1, §2, §3, §4, §5, §6

T6 sequence (Q13547 whole entry): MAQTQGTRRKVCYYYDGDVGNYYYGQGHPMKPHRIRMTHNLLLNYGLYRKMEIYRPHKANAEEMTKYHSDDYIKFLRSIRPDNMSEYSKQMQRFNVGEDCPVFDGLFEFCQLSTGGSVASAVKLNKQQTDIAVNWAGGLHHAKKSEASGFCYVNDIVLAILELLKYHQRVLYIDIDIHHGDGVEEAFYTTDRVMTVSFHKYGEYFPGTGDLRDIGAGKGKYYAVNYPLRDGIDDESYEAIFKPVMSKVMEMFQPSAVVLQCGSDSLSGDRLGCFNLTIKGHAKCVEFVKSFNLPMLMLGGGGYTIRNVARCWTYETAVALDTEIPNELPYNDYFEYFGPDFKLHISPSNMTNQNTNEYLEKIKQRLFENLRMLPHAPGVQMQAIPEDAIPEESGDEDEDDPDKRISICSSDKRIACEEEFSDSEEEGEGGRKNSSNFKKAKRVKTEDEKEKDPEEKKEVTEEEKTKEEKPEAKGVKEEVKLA
T5 sequence (Q92769 whole entry): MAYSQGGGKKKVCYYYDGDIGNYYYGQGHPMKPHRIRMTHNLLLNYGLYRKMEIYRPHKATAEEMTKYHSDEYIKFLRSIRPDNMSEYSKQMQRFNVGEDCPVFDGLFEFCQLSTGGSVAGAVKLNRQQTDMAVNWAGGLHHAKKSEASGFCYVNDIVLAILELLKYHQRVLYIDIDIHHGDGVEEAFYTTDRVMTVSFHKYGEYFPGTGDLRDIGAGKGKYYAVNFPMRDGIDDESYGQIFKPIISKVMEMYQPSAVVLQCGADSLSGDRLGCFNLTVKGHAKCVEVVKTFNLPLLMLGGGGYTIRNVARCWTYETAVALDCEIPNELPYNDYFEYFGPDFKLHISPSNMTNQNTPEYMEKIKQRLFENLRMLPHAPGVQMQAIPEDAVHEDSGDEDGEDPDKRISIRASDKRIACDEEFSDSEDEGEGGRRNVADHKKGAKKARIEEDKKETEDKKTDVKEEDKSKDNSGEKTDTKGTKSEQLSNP
Chain of HDAC3 (O15379 whole entry, canonical isoform): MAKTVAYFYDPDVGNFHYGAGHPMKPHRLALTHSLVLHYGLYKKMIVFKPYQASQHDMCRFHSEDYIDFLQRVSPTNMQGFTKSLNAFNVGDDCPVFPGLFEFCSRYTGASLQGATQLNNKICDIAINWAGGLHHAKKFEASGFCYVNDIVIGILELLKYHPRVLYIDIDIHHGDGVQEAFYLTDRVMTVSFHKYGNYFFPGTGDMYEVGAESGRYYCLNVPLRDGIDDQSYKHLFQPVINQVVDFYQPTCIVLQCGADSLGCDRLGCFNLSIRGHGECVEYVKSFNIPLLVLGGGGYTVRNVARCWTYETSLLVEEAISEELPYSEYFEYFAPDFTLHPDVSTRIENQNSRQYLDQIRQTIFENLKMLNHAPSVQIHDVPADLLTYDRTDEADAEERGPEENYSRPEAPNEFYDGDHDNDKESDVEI
Chain of HDAC3 (Q9Y618 395-489 partner limits assumed): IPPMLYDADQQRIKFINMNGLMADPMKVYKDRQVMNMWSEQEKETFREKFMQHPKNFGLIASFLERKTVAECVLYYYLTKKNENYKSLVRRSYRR
T3 sequence (Q9UKV0 whole entry): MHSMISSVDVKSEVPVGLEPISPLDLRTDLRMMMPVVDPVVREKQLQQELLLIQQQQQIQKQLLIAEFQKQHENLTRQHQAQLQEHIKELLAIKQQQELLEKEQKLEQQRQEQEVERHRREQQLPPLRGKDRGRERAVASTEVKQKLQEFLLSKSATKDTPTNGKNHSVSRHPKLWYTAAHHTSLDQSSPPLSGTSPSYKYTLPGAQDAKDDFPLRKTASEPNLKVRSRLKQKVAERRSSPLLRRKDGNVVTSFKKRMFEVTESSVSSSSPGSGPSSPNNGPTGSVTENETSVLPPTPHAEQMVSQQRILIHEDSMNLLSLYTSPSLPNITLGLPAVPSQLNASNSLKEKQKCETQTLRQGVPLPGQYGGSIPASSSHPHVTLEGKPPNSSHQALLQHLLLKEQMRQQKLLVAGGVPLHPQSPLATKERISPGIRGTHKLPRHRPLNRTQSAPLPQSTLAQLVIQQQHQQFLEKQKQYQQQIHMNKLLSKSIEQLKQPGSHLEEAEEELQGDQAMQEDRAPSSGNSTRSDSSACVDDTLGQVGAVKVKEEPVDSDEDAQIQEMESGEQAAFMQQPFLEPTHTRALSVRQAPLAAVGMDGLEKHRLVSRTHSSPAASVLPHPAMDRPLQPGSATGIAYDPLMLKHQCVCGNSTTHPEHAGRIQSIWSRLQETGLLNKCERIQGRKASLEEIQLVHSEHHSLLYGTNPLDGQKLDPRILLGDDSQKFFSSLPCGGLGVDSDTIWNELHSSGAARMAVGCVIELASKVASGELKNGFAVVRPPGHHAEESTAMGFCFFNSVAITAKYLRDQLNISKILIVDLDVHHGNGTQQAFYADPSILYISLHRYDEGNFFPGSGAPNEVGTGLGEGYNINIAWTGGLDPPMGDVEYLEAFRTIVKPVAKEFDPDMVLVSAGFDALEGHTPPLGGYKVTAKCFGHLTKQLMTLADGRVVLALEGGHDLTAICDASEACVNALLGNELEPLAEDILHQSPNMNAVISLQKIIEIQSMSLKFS
T4 sequence (Q9UQL6 whole entry): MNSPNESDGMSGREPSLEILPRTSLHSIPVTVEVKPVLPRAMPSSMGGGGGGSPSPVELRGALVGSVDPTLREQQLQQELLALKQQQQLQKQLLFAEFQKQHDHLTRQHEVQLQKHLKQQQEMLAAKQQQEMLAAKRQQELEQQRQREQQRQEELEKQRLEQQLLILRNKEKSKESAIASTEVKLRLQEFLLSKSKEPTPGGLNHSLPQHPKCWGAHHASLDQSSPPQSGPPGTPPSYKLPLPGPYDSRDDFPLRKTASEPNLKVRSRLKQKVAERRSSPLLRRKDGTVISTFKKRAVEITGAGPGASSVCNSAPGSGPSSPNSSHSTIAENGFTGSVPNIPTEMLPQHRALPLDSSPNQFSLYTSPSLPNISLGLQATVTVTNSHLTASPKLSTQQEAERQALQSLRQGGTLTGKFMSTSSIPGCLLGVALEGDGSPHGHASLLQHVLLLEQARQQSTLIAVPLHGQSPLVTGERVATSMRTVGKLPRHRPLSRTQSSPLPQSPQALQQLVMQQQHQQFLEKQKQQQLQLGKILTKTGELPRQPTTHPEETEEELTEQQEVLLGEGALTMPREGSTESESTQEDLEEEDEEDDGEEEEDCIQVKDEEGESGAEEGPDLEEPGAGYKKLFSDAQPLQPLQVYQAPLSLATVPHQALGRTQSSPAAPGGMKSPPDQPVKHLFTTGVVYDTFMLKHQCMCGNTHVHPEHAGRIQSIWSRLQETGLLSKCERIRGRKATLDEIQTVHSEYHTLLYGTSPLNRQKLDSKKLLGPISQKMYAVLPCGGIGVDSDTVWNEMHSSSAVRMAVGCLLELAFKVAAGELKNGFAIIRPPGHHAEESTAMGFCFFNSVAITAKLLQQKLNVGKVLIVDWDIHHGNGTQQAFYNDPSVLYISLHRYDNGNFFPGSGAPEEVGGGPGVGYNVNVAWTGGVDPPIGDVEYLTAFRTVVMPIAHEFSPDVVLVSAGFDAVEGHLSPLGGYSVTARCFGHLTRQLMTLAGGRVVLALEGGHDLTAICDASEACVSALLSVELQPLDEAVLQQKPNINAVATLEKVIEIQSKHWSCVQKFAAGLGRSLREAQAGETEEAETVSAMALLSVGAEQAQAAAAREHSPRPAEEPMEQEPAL
T2 sequence (P56524 whole entry): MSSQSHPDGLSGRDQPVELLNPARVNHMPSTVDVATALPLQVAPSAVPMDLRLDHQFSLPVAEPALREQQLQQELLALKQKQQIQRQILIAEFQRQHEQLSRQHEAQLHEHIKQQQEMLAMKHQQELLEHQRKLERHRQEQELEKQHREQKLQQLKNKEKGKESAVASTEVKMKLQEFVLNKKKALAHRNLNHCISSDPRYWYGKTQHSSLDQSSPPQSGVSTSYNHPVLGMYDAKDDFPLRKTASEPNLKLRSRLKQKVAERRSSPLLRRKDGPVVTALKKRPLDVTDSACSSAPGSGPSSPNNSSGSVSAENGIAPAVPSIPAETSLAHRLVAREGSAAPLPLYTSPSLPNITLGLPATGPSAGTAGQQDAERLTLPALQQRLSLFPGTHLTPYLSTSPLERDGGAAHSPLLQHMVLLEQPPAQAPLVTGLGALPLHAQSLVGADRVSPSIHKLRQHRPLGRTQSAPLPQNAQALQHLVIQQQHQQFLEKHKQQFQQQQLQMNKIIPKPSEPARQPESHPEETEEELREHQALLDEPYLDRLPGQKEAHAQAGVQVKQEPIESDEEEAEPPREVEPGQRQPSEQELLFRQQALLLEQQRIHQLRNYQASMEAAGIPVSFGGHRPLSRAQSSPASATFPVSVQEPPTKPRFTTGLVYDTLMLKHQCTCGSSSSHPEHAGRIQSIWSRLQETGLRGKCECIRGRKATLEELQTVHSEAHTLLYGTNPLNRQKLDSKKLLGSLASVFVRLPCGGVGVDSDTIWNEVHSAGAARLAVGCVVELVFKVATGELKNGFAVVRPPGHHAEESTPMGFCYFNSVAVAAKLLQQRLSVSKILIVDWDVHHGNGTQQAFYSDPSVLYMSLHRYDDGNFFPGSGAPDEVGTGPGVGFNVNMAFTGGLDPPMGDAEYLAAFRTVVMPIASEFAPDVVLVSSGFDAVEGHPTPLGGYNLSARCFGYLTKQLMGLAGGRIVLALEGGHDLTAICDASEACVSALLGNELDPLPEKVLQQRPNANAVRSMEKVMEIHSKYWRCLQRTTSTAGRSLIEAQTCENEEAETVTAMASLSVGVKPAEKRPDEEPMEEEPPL

Broadly, the IC50 is the concentration that gives 50% inhibition. For `Cc1ncsc1-c1ccc([C@H](C)NC(=O)[C@@H]2C[C@@H](O)CN2C(=O)[C@@H](NC(=O)CCOCCOCCN(CCc2c[nH]c3ccccc23)Cc2ccc(/C=C/C(=O)NO)cc2)C(C)(C)C)cc1` [Compound 2, (2S,4R)-1-((S)-14-(tert-butyl)-3-(4-((E)-3-(hydroxyamino)-3-oxoprop-1-en-1-yl)benzyl)-1-(1H-indol-3-yl)-12-oxo-6,9-dioxa-3,13-diazapentadecan-15-oyl)-4-hydroxy-N—((S)-1-(4-(4-methylthiazol-5-yl)phenyl)ethyl)pyrrolidine-2-carboxamide], the “inhibition of HDAC3 deacetylase activity in vitro (in words)” value in experiment [1] is reported as “Moderate inhibition”. In addition, the IC50 in experiment [1] (10-dose response curve, read-out: Compound IC50 (M), HDAC3) was 5.77e-07 M; in experiment [2] (10-dose response curve, read-out: Compound IC50 (M), HDAC6), 7.85e-08 M; in experiment [3] it was 1.31e-05 M; in experiment [4] it was more than 2e-05 M; in experiment [5] it was 2.69e-06 M; in experiment [6] (10-dose response curve, read-out: Compound IC50 (M), HDAC2) it was 1.03e-06 M. In addition, in experiment [7] (10-dose response curve, read-out: Compound IC50 (M), HDAC1), the IC50 worked out at 4.81e-07 M. For the same compound, in experiment [2], the “inhibition of HDAC6 activity in vitro (in words)” value is recorded as “potently inhibited”. Moreover, in experiment [6], the “inhibition of HDAC2 deacetylase activity in vitro (in words)” value is listed as “Moderate inhibition”. Further, in experiment [7], the “inhibition of HDAC1 deacetylase activity in vitro (in words)” value is given as “Moderate inhibition”.

These data come from patent US20220401564A1 (DANA-FARBER CANCER INSTITUTE, INC., priority 2019, published 2022).
